Laboratory results published in patent US8354447B2, “mGLU receptors antagonists for treating disorders associated with mGLU receptors including addiction and depression” (The Scripps Research Institute, priority 2002, dated 2013).
Structures can show the parent of a compound that is named as a salt. Where two headings read alike, the source gives them in different places.

System: male Wistar rats
Description: Animals were trained to respond according to a modification of the discrete-trial current-threshold procedure of Kornetsky and Esposito (Fed Proc 38:2473-2476, 1979), which has been described in detail previously (Markou and Koob, 1992 Physiol Behav 51:111-119). Briefly, a trial was initiated by the delivery of a non-contingent electrical stimulus. […] The current intensity delivered was adjusted for each animal and typically ranged from 50 to 200 μA. […] After a variable inter-trial interval (7.5-12.5 sec, average of 10 sec), another trial was initiated with the delivery of a non-contingent electrical stimulus. […] Responding during the inter-trial interval delayed the onset of the next trial by 12.5 sec. Current levels were varied in alternating descending and ascending series. A set of three trials was presented for each current intensity. Current intensities were altered in 5 μA steps. In each testing session, four alternating descending-ascending series were presented. […] The overall threshold of the session was defined as the mean of the thresholds for the four individual series. Each testing session was ˜30 min in duration. The latency between the onset of the non-contingent stimulus and a positive response was recorded as the response latency. The response latency for each test session was defined as the mean response latency of all trials during which a positive response occurred. After establishment of stable ICSS reward thresholds, rats were tested in the ICSS procedure once daily except for the spontaneous nicotine withdrawal experiment when rats were tested at time-points according to the experimental design.
Systemic administration experiments. These experiments investigated whether nicotine withdrawal, as measured by elevations in ICSS thresholds, could be precipitated in nicotine-treated rats by systemic administration of an agonist at mGluII receptors (LY314582), an agonist at GABAB receptors (CGP44532), or antagonists at mGlu5 (MPEP), NMDA (MK-801) or AMPA/Kainate (NBQX) glutamate receptors. For each drug tested, rats were trained in the ICSS paradigm until stable baseline responding was achieved, defined as ≦10% variation in thresholds for 3 consecutive days and requiring approximately 14 days of daily testing. […] One group was then prepared with subcutaneous osmotic mini-pumps delivering vehicle and the second group with mini-pumps delivering 9 mg/kg/day nicotine hydrogen tartrate (3.16 mg/kg/day nicotine free base). There was a minimum seven-day interval after mini-pump implantation, during which ICSS reward thresholds continued to be measured daily, before the effect of any systemically administered drug on reward thresholds was evaluated.

[1] = MK-801 0.01 mg/kg i.p., Nicotine-treated rats
[2] = MK-801 0.01 mg/kg i.p., Vehicle-treated rats
[3] = MK-801 0.03 mg/kg i.p., Nicotine-treated rats
[4] = MK-801 0.03 mg/kg i.p., Vehicle-treated rats
[5] = MK-801 0.1 mg/kg i.p., Nicotine-treated rats
[6] = MK-801 0.1 mg/kg i.p., Vehicle-treated rats
[7] = MK-801 0.15 mg/kg i.p., Nicotine-treated rats
[8] = MK-801 0.15 mg/kg i.p., Vehicle-treated rats
[9] = MK-801 0.175 mg/kg i.p., Nicotine-treated rats
[10] = MK-801 0.175 mg/kg i.p., Vehicle-treated rats
[11] = MK-801 0.2 mg/kg i.p., Nicotine-treated rats
[12] = MK-801 0.2 mg/kg i.p., Vehicle-treated rats

C[C@]12N[C@H](Cc3ccccc31)c1ccccc12 [MK-801, (5R,10S)-(+)-5-Methyl-10,11-dihydro-5H-dibenzo(a,d)cyclohepten-5,10-imine hydrogen maleate]
ICSS Thresholds [1]: 98.20 ± 6.1 percentage of baseline
ICSS response Latencies [1]: 95.41 ± 2.3 percentage of baseline
ICSS Thresholds [2]: 95.99 ± 3.3 percentage of baseline
ICSS response Latencies [2]: 100.00 ± 2.5 percentage of baseline
ICSS Thresholds [3]: 93.09 ± 3.9 percentage of baseline
ICSS response Latencies [3]: 94.64 ± 3.6 percentage of baseline
ICSS Thresholds [4]: 92.54 ± 2.6 percentage of baseline
ICSS response Latencies [4]: 103.14 ± 2.1 percentage of baseline
ICSS Thresholds [5]: 89.42 ± 3.6 percentage of baseline
ICSS response Latencies [5]: 106.14 ± 4.4 percentage of baseline
ICSS Thresholds [6]: 88.48 ± 5.6 percentage of baseline
ICSS response Latencies [6]: 98.97 ± 3.9 percentage of baseline
ICSS Thresholds [7]: 76.24 ± 4.7 percentage of baseline
ICSS response Latencies [7]: 93.65 ± 3.6 percentage of baseline
ICSS Thresholds [8]: 87.14 ± 4.6 percentage of baseline
ICSS response Latencies [8]: 101.60 ± 2.0 percentage of baseline
ICSS Thresholds [9]: 82.26 ± 3.7 percentage of baseline
ICSS response Latencies [9]: 93.56 ± 4.2 percentage of baseline
ICSS Thresholds [10]: 93.64 ± 3.4 percentage of baseline
ICSS response Latencies [10]: 119.22 ± 11.9 percentage of baseline
ICSS Thresholds [11]: 84.29 ± 3.0 percentage of baseline
ICSS response Latencies [11]: 105.14 ± 1.9 percentage of baseline
ICSS Thresholds [12]: 82.47 ± 4.3 percentage of baseline
ICSS response Latencies [12]: 119.21 ± 9.4 percentage of baseline
ICSS reward thresholds (MK-801 0.01-0.2 mg/kg): lowered reward thresholds in nicotine-treated and control rats
withdrawal-like elevations in reward thresholds (MK-801, nicotine-treated rats): did not precipitate withdrawal-like elevations in reward thresholds in nicotine-treated rats at any dose tested
ICSS response Latencies (MK-801, p<0.05, particularly in control rats): did significantly increase response latencies
Doses causing disruption in performance in the ICSS paradigm (both groups, rats no longer responded for self-stimulation): ≥ 0.2 mg/kg

NS(=O)(=O)c1cccc2c1c([N+](=O)[O-])cc1[nH]c(=O)c(=O)[nH]c12.[Na].[Na] [NBQX, 2,3-dioxo-6-nitro-1,2,3,4-tetrahydrobenzo(f)quinoxaline-7-sulphonamide disodium]
ICSS response Latencies (NBQX 0.01-1 mg/kg): had no effect on response latencies in nicotine-treated or control rats at any dose tested
ICSS reward thresholds (NBQX 0.01-1 mg/kg): significantly altered ICSS reward thresholds in nicotine-treated but not control rats
ICSS reward thresholds (NBQX 0.025-0.1 mg/kg, nicotine-treated rats): elevated reward thresholds in nicotine-treated rats
ICSS reward thresholds (NBQX 0.5-1 mg/kg, nicotine-treated rats): did not significantly increase thresholds compared to vehicle treatment
